Data reported in patent US12070457B2, “Substituted pyridines, pyridazines, pyrimidines, and 1,2,3-triazines as bruton's tyrosine kinase inhibitors” (HUTCHISON MEDIPHARMA LIMITED, priority 2020, dated 2024).

Key:
[1] = Stability test in liver microsomes (rat); type: in vitro ADME; conditions: 1 μM compound
How it was run: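 Compound (1 μM final) incubated 30 min at 37 °C with male CD-1 mouse or male SD rat pooled liver microsomes (0.5 mg/mL) in 50 mM phosphate buffer with 3 mM MgCl2, 1 mM EDTA and NADPH-regenerating system. Quenched with acetonitrile containing internal standard; LC-MS/MS gives percent remaining relative to 0-min sample.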

[2] = tested on: TMD8 subcutaneous xenograft (human diffuse large B-cell lymphoma cells); assay: In vivo efficacy in TMD8 subcutaneous xenograft model; parameters: species or system mouse; conditions: 10 mg/kg and 30 mg/kg vs Ibrutinib 50 mg/kg and GDC-0853 10 mg/kg
Method: Example 7 Evaluation of In Vivo Efficacy of the Compound of the Present Invention in TMD8 Subcutaneous Xenograft Model
Objects: To investigate the anti-tumor activity of compound 19 in TMD8 subcutaneous xenograft model in nude mice.
Methods: Human diffuse large B-cell lymphoma cells TMD8 (acquired under license from Tokyo Medical and Dental University) were cultured in RPMI1640 medium containing 10% fetal bovine serum. 1×10^7 tumor cells suspended in RPMI1640 medium mixed well with Matrigel (purchased from Corning, USA) at 1:1 were implanted subcutaneously on the right flank of each male Balb/c nude mouse (Shanghai Lingchang Biotechnology Co., Ltd.), pretreated with cyclophosphamide (at a dose of 200 mg/kg, intraperitoneal injection 24 h before cell inoculation). […] All drugs were administered by oral gavage, once a day, and the vehicle control group was administered orally with 0.5% hydroxypropyl methylcellulose solution (pH=3).
Tumor volumes (tumor volume=0.5× long diameter× short diameter^2) and body weights of the mice were measured regularly. The tumor volume change and body weight were statistically analyzed, with p<0.05 considered statistically significant, and p<0.01 as extremely statistically significant.
The anti-tumor activity was evaluated by tumor growth inhibition. […]

RLM, percentage of remaining compound after 30 minutes of incubation ([1]; rat liver microsomes, 30 min): 92.7%
Compound: C[C@H]1CN(C2COC2)CCN1c1ccc(Nc2cc(-c3ccnc(-n4ccn5c6c(cc5c4=O)CC(C)(C)C6)c3CO)cn(C)c2=O)nc1 [Compound 19]
stability in rat liver microsomes compared with reference GDC-0853 ([1]; 0.5 mg/mL liver microsomes, 30 minutes incubation): better than that of the reference GDC-0853
anti-tumor efficacy compared with Ibrutinib or GDC-0853 [2]: statistically significant superior efficacy to Ibrutinib or GDC-0853
